According to article PMC3295232 (Journal of the American Chemical Society, 2012):
Residue numbers refer to the chain shown, from its start. Read-outs that look alike come from different tables or passages of the source.

Tests used:
Test in all cases: CD titration with propionylphosphinate
Format in all cases: binding
YPDC = molecular target: T1, YPDC (Saccharomyces cerevisiae, UniProt P06169); conditions: for Kd: pH 6.0, 25 °C
T1 sequence (P06169 1-563): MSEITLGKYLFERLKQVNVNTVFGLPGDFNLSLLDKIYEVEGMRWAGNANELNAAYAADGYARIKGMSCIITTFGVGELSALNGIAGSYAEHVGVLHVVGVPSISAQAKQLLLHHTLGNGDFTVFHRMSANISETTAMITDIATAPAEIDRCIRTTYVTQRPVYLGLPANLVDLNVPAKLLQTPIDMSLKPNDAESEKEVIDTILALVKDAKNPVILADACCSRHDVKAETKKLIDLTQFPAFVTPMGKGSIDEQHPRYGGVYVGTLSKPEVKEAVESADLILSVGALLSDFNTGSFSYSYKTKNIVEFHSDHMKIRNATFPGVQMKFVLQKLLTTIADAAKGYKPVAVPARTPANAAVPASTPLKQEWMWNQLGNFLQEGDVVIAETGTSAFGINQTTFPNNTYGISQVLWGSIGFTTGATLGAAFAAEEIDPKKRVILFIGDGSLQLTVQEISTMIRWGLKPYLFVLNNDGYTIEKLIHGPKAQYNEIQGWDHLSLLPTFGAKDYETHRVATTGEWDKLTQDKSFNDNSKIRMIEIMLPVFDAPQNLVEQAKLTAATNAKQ

E91D YPDC = molecular target: T2, E91D YPDC (Saccharomyces cerevisiae, UniProt P06169, E91D); conditions: for Kd: pH 6.0, 25 °C
T2 sequence (P06169 1-563 E91D): T1 sequence (P06169 1-563) with E91D

C221E/C222A YPDC = molecular target: T3, C221E/C222A YPDC (Saccharomyces cerevisiae, UniProt P06169, C221E/C222A); conditions: IP form of PPThDP
T3 sequence (P06169 1-563 C221E/C222A): T1 sequence (P06169 1-563) with C221E, C222A

E51D YPDC = molecular target: T4, E51D YPDC (Saccharomyces cerevisiae, UniProt P06169, E51D)
T4 sequence (P06169 1-563 E51D): T1 sequence (P06169 1-563) with E51D

E477Q YPDC = molecular target: T5, E477Q YPDC (Saccharomyces cerevisiae, UniProt P06169, E477Q); conditions: pH 6.0, 25 °C
T5 sequence (P06169 1-563 E477Q): T1 sequence (P06169 1-563) with E477Q

D28A YPDC = molecular target: T6, D28A YPDC (Saccharomyces cerevisiae, UniProt P06169, D28A); conditions: pH 6.0, 25 °C
T6 sequence (P06169 1-563 D28A): T1 sequence (P06169 1-563) with D28A

[1] = read-out: Kd^app (IP), 1′,4′-iminopyrimidine tautomer of PPThDP, CD band at 297 nm
[2] = read-out: Kd^app (MC), Michaelis complex, negative CD band at 330 nm

Which results are given for `CCC(=O)[PH](=O)[O-].[Na+]` [PP, sodium propionylphosphinate]?
CD max (IP) (YPDC; IP form of PPThDP, 297 nm): 15.8 ± 0.79 (IP) mdeg; Kd (YPDC; [1]): 7.82 ± 0.55 mM; Kd (YPDC; [2]): 9.1 ± 0.45 mM; CD max (IP) (E91D YPDC; IP form of PPThDP, 297 nm): 7.6 ± 0.63 (IP) mdeg; CD max (MC) (E91D YPDC; Michaelis complex, 330 nm): −2.85 ± 0.18 (MC) mdeg; Kd (E91D YPDC; [1]): 7.02 ± 1.34 mM; Kd (E91D YPDC; [2]): 8.02 ± 0.92 mM; CD max (IP) (C221E/C222A YPDC): 4.7 ± 0.77 (IP) mdeg; CD max (IP) (E51D YPDC; IP form of PPThDP): 21.6 ± 0.54 (IP) mdeg; Kd (E51D YPDC; read-out: Kd^app (IP), 1′,4′-iminopyrimidine tautomer of PPThDP, CD band at 297 nm, pH 6.0, 25 °C): 13.6 ± 0.35 mM; Kd^app (E477Q YPDC): Not detected; Kd^app (D28A YPDC): Not detected
